Entries after “also recorded” stand apart in the source; their conditions may differ.
Legend:
[1] = tested on: L1210 cells; assay: Life span of BDF1 mice inoculated ip with 10^6 L1210 leukemia cells; format: in vivo, mouse
Description: As illustrative examples of use of the compounds of the invention the following examples are given. […] These standard tests utilize protocols developed under the auspices of the Developmental Therapeutics Program, Division of Cancer Treatment, National Cancer Institute, Bethesda, Md., U.S.A. Except as otherwise indicated the tests conform to these protocols and are evaluated utilizing criteria defined by the protocols.
Values below 25% are considered capable of producing effective therapy, those below 10% are considered good and those below 5% are considered very good. This expresses the percent of the cells which survived treatment based upon the original cells in the inoculum. Those tests expressed as increases in life span (% ILS) indicate the increased life span of the drug treated group compared to a control group.
As an indicator of reproducible activity, compounds of the invention and other known cancer chemotherapeutic agents were screened against L1210 lymphoid leukemia in vivo utilizing the mouse as a test species. Normal NCI protocols for this test require 10^5 seed cells of the L1210 cell line.
Cytosine Arabinoside must be given every three hours.
Mice were inoculated intraperitoneally on day 0 with a million cells of murine leukemia L1210. Drug was given qd days 1, 4 and 7. Increased life span is the mean increase in the treated group presented as a percentage of the mean life span of control mice.
Mice were inoculated intraperitoneally on day 0 with a million cells of murine leukemia L1210. Drugs were given qd days 1, 3, 5 and 7. Increased life span is presented as a percentage of the mean life span of control mice.

[2] = tested on: Murine Glioma 261; assay: Murine Glioma 261 tumor weight in C57B1/6 mice; format: in vivo, mouse; conditions: qd days 1-9; for Attained tumor wt (Mean ± 1SD): day 10; for T/C (%): active at or below 42%
Description: Compound 19 was also tested against Murine Glioma 261. In this test activity is indicated at levels of T/C below 42%. As is shown in Table 19, Compound 19 is active at various doses against this tumor system.

[3] = tested on: human lung carcinoma LX-1; assay: Activity against human lung carcinoma LX-1; conditions: in vivo
[4] = tested on: Colon 26 Adenocarcinoma; assay: Survival of CDF1 mice bearing Colon 26 Adenocarcinoma; format: in vivo, mouse; conditions: for T/C (%): ≥150% significant
Description: In Example Q Compound 19 was tested against Colon 26 Adenocarcinoma.

[5] = Solubility (maximum solubility); format: physicochemical
[6] = tested on: L1210/6MP, 6TG, 6TGR cells; assay: Life span of mice inoculated with L1210 resistant to 6MP, 6TG, 6TGR; format: in vivo, mouse; conditions: for ILS: L1210/6MP,6TG; for activity against drug resistant cells (words): mouse, in vivo
[7] = ip 37 mg/kg/inj, bid days 1,3,5,7
[8] = ip 62 mg/kg/inj, bid days 1,4,7
[9] = ip 104 mg/kg/inj, qd days 1,3,5,7
[10] = ip 104 mg/kg/inj, qd days 1,4,7
[11] = ip 173 mg/kg/inj, qd days 1,3,5,7
[12] = ip 173 mg/kg/inj, qd days 1,4,7
[13] = oral 37 mg/kg/inj, bid days 1,3,5,7
[14] = oral 62 mg/kg/inj, bid days 1,4,7
[15] = listed as 2-amino-9-β-D-ribofuranosyl-9H-purine-6-sulfinamide

SMILES: Nc1nc([S+](N)[O-])c2ncn([C@@H]3O[C@H](CO)[C@@H](O)[C@H]3O)c2n1 (mixture of isomers) [Compound 19, 2-amino-9-β-D-ribofuranosyl-9H-purine-6-sulfinamide]
- Increased life span ([1]; 37 mg/kg/inj injected, qd days 1,3,5,7): 74%
- Increased life span ([1]; 62 mg/kg/inj injected, qd days 1,3,5,7): 123%
- Increased life span ([1]; 104 mg/kg/inj injected, qd days 1,3,5,7): 136%
- Increased life span ([1]; 173 mg/kg/inj injected, qd days 1,3,5,7): 189%
- dose at which significant activity is indicated ([1]; delivered only once on day 1, ip): about 37 mg per kg
- T/C (%) ([1]; ip 13 mg/kg, qd day 1): 106%
- T/C (%) ([1]; ip 22 mg/kg, qd day 1): 106%
- Life span (% T/C) ([1]; ip 22 mg/kg/inj, bid days 1,3,5,7): 193%
- Life span (% T/C) ([1]; ip 22 mg/kg/inj, bid days 1,4,7): 161%
- Life span (% T/C) ([1]; ip 22 mg/kg/inj, bid days 1-7): 200%
- T/C (%) ([1]; ip 37 mg/kg, qd day 1): 128%
- % ILS [1, 7]: 79%
- Life span (% T/C) [1, 7]: 236%
- Life span (% T/C) ([1]; ip 37 mg/kg/inj, bid days 1,4,7): 216%
- Life span (% T/C) ([1]; ip 37 mg/kg/inj, bid days 1-7): 233%
- Life span (% T/C) ([1]; ip 37 mg/kg/inj, qd days 1,3,5,7): 174%
- Increased life span ([1]; ip 37 mg/kg/inj, qd days 1,4,7): 54%
- Life span (% T/C) ([1]; ip 37 mg/kg/inj, qd days 1,4,7): 154%
- Life span (% T/C) ([1]; ip 37 mg/kg/inj, qd days 1-7): 213%
- T/C (%) ([1]; ip 62 mg/kg, bid day 1): 184%
- T/C (%) ([1]; ip 62 mg/kg, qd day 1): 135%
- T/C (%) ([1]; ip 62 mg/kg, qid day 1): 194%
- T/C (%) ([1]; ip 62 mg/kg, tid day 1): 183%
- Life span (% T/C) ([1]; ip 62 mg/kg/inj, bid days 1,3,5,7): 285%
- % ILS [1, 8]: 88%
- Life span (% T/C) [1, 8]: 249%
- long term survivors ([1]; ip 62 mg/kg/inj, bid days 1-7): 2
- Life span (% T/C) ([1]; ip 62 mg/kg/inj, bid days 1-7, 2 long term survivors not included): 361%
- Life span (% T/C) ([1]; ip 62 mg/kg/inj, qd days 1,3,5,7): 223%
- Increased life span ([1]; ip 62 mg/kg/inj, qd days 1,4,7): 93%
- Life span (% T/C) ([1]; ip 62 mg/kg/inj, qd days 1,4,7): 193%
- Life span (% T/C) ([1]; ip 62 mg/kg/inj, qd days 1-7): 239%
- T/C (%) ([1]; ip 104 mg/kg, qd day 1): 151%
- Life span (% T/C) ([1]; ip 104 mg/kg/inj, bid days 1,4,7, 1 toxic death not included): 311%
- Life span (% T/C) [1, 9]: 236%
- Increased life span [1, 10]: 130%
- Life span (% T/C) [1, 10]: 230%
- long term survivors ([1]; ip 104 mg/kg/inj, qd days 1-7): 1
- Life span (% T/C) ([1]; ip 104 mg/kg/inj, qd days 1-7, 1 long term survivor not included): 307%
- T/C (%) ([1]; ip 173 mg/kg, qd day 1): 167%
- Life span (% T/C) [1, 11]: 289%
- Increased life span [1, 12]: 169%
- Life span (% T/C) [1, 12]: 269%
- in vivo antitumor activity ([1]; mouse, in vivo): good in vivo activity
- oral activity (words) [1]: Oral activity is seen
- Activity against I.P. L1210 cells, T/C ([1]; oral 37 mg/kg, bid days 1,3,5,7): 148.6%
- Activity against I.P. L1210 cells, T/C ([1]; oral 37 mg/kg, qd days 1,4,7): 144.6%
- % ILS [1, 13]: 49%
- Increased life span ([1]; oral 37 mg/kg/inj, qd days 1,4,7): 45%
- Activity against I.P. L1210 cells, T/C ([1]; oral 62 mg/kg, bid days 1,4,7): 140.0%
- Activity against I.P. L1210 cells, T/C ([1]; oral 62 mg/kg, qd days 1,4,7): 144.6%
- % ILS [1, 14]: 40%
- Increased life span ([1]; oral 62 mg/kg/inj, qd days 1,4,7): 45%
- Activity against I.P. L1210 cells, T/C ([1]; oral 104 mg/kg, qd days 1,4,7): 138.5%
- Increased life span ([1]; oral 104 mg/kg/inj, qd days 1,4,7): 38%
- Activity against I.P. L1210 cells, T/C ([1]; oral 173 mg/kg, qd days 1,4,7): 138.5%
- Increased life span ([1]; oral 173 mg/kg/inj, qd days 1,4,7): 38%
- oral activity (words) [1, 15]: active in both an oral and an injectable form; also recorded: orally active
- % ILS ([1]; single agent day 1, Compound 19 173 mg/kg, Compound 18 22 mg/kg (Table 12)): 88%
- % ILS ([1]; single agent day 1, Compound 19 173 mg/kg, Tiazofurin 22 mg/kg (Table 13)): 81%
- Attained tumor wt (Mean ± 1SD) ([2]; ip 22 mg/kg/inj): 80 ± 130 mg
- Attained tumor wt (Mean ± 1SD) ([2]; ip 37 mg/kg/inj): 119 ± 105 mg
- Attained tumor wt (Mean ± 1SD) ([2]; ip 62 mg/kg/inj): 137 ± 124 mg
- Attained tumor wt (Mean ± 1SD) ([2]; ip 104 mg/kg/inj): 5 ± 5 mg
- T/C (%) ([2]; ip 22 mg/kg/inj): 22.9%
- T/C (%) ([2]; ip 37 mg/kg/inj): 34.1%
- T/C (%) ([2]; ip 62 mg/kg/inj): 39.3%
- T/C (%) ([2]; ip 104 mg/kg/inj): 1.4%
- activity against human lung carcinoma LX-1 [3]: No activity
- Median survival time [4, 8]: 45 days post inoculation
- T/C (%) [4, 8]: 196%
- Median survival time ([4]; ip 62 mg/kg/inj, qd days 1-7): 40 days post inoculation
- T/C (%) ([4]; ip 62 mg/kg/inj, qd days 1-7): 174%
- Median survival time ([4]; ip 104 mg/kg/inj, bid days 1,4,7, group included 6 toxic deaths): 17 days post inoculation
- Median survival time [4, 9]: 34 days post inoculation
- T/C (%) [4, 9]: 148%
- Median survival time [4, 10]: 31 days post inoculation
- T/C (%) [4, 10]: 135%
- Median survival time ([4]; ip 104 mg/kg/inj, qd days 1-7): 38 days post inoculation
- T/C (%) ([4]; ip 104 mg/kg/inj, qd days 1-7): 165%
- Median survival time [4, 11]: 42 days post inoculation
- T/C (%) [4, 11]: 183%
- Median survival time [4, 12]: 31 days post inoculation
- T/C (%) [4, 12]: 135%
- Maximum solubility (as dosage) [5]: 288 mg/kg
- maximum solubility (as dose) [5]: 288 mg per kg
- solubility relative to enantiomer B [5]: exhibits solubility characteristics of enantiomer B
- water solubility [5]: water soluble
- Activity against I.P. L1210 cells resistant to 6MP, 6TG, 6TGR, T/C ([6]; 37 mg/kg, bid days 1,3,5,7): 165.6%
- Activity against I.P. L1210 cells resistant to 6MP, 6TG, 6TGR, T/C ([6]; 62 mg/kg, bid day 1): 133.3%
- Activity against I.P. L1210 cells resistant to 6MP, 6TG, 6TGR, T/C ([6]; 62 mg/kg, bid days 1,4,7): 175.0%
- Activity against I.P. L1210 cells resistant to 6MP, 6TG, 6TGR, T/C ([6]; 62 mg/kg, qd day 1): 127.3%
- Activity against I.P. L1210 cells resistant to 6MP, 6TG, 6TGR, T/C ([6]; 62 mg/kg, tid day 1): 133.3%
- Activity against I.P. L1210 cells resistant to 6MP, 6TG, 6TGR, T/C ([6]; 104 mg/kg, bid day 1): 150.0%
- Activity against I.P. L1210 cells resistant to 6MP, 6TG, 6TGR, T/C ([6]; 104 mg/kg, qd day 1): 122.2%
- Activity against I.P. L1210 cells resistant to 6MP, 6TG, 6TGR, T/C ([6]; 173 mg/kg, qd day 1): 144.5%
- ILS [6, 7]: 66%
- ILS [6, 8]: 75%
- ILS [6, 13]: 0%
- ILS [6, 14]: 0%
- activity against drug resistant cells (words) [6]: exhibited activity against the drug resistant cells; also recorded: active
- activity against drug resistant cells (words) [6, 15]: demonstrated activity against cells which have become resistant to other chemotherapeutic agents

Source: patent US5026836A, “6-sulfenamide, 6-sulfinamide and 6-sulfonamide purines, purine nucleosides, purine nucleotides, pharmaceutical compositions, and processes of making” (priority 1988, dated 1991)
